According to PMC3904841, “Crystal Structures of HIV-1 gp120 Envelope Glycoprotein in Complex with NBD Analogues That Target the CD4-Binding Site” (PLoS ONE, 2014):
Like-named read-outs stand apart in the source and are kept apart here.

Legend:
[1] = system: Clade A/E93TH057 gp120 coree; assay: SPR binding of gp120 coree to immobilized NBD-556 and sCD4; set-up: species or system HIV-1; details: ligand on CM5 chip, His 375
Source text: (§1) Our structures reveal that Region I and II of the NBD congeners fit deeply within the Phe 43 cavity. As such, mutations that alter the shape of the cavity will also affect binding of the small molecules to gp120. One residue in close proximity to Region I and II of the NBD congeners is Ser 375 (vide supra). […] In several group O, N, or M HIV-1 viruses, Ser 375 of gp120 is replaced with either Met or His. […] However, the rate of Ser 375 to Trp mutation may be counterbalanced because the same mutation is also detrimental to the viruses by predisposing gp120 to adopt the CD4-bound conformation, a state prone to inactivation. Overall, the Phe 43 cavity remains an indispensable target for small molecule inhibitors.
(§2) Figure 8 NBD analogues are unable to bind Ser 375 variants of gp120s. […] Ser 375 was shown in the NBD-557 bound cavity. […] NBD-557 modeled into the Phe 43 cavity of clade A/E gp120 clashes with His 375. […] Met 375 modeled into NBD-557-bound YU2 gp120 clashes with NBD-557. […] NBD-557 clashes with Trp 375 in the Phe 43 cavity.

[2] = system: Clade AKER2008 gp120 coree; assay: as above; set-up: species or system HIV-1; details: ligand on CM5 chip, Met 375
Source text: as §1, §2

[3] = system: Clade CRF34_1OUR2478P gp120 coree; assay: as above; set-up: species or system HIV-1; details: ligand on CM5 chip, Trp 375
Source text: as §1, §2

HIV-1 YU2 virus = details: cited from earlier work; for IC50: Cf2Th-CD4/CCR5 cells infected with HIV-1 YU2 virus
[4] = system: amphotropic murine leukemia virus (A-MLV); details: cells infected with A-MLV, cited from earlier work
HIV-1YU2 virus = details: cited from earlier work; for Activation of Viral Infectivity: relative, CD4 negative Cf2Th-CCR5 cells; for activation of viral infectivity in CD4-negative cells (in words): summary of Table S1
[5] = system: full-length gp120 variants possessing the Ser 375 to Trp mutation (S375W); set-up: method as in PMID 19000821; details: ref [21]; cited from earlier work
gp120 coremin = assay: SPR enhancement of gp120 coremin binding to 17b antibody; set-up: species or system HIV-1; details: 100 nM gp120, 0–100 µM compound, 17b captured on CM5 chip
Source text: A major undesired trait of NBD analogues as HIV-1 entry inhibitors is their capacity to activate viral infectivity in CD4-negative cells. To understand the underlying mechanisms of activation of HIV-1 infectivity in CD4-negative cells in the presence of select NBD analogues, we asked if the capacity of the four analogues to induce gp120 conformational change to the CD4-bound state might account for observed differences in viral infectivity. To address this question, we employed surface-plasmon resonance (SPR) and measured the capacity of NBD-557, (±)-AS-II-37, (±)-AS-I-261, (±)-MAE-II-167, and (±)-MAE-II-188 to increase the binding affinity of either the minimal core (coremin) or full-length gp120 for the 17b antibody, which recognizes gp120 in the CD4-bound conformation. We chose gp120 coremin over coree for SPR measurement because the coree is already in the CD4 bound conformation, and the effect of these small molecules on 17b-gp120 interaction is undetectable.
Figure 7 NBD analogue binding to gp120 enhances 17b-gp120 interaction. (A–D) 100 nM of gp120 coremin or full-length gp120 in the presence of 0–100 µM of NBD analogues was passed over 17b antibody immobilized on a CM5 chip. The binding of gp120 to 17b increased, in a concentration dependent manner, in response to treatment with the NBD analogues.
SPR experiments were performed using Biacore T100 (GE Healthcare) at 25°C. […] HBS-EP buffer (GE Healthcare) was used for the running buffer. A capture method was used to monitor the enhancement of gp120 binding to 17b by NBD-analogues. […] The running buffer contained 20 mM HEPES, pH 7.4, 150 mM NaCl, 0.05% P-20, and 5% DMSO.

gp120 = details: cited from earlier work; for Kd: binding affinity for gp120
Cf2Th-CD4-CCR5 cells = system: Cf2Th-CD4-CCR5 cells; set-up: method as in PMID 22497421; details: 100 µM; ref [24]; cited from earlier work
[6] = system: laboratory-adapted HIV-1IIIB strain; set-up: method as in Zhao et al. [18]; details: printed in the HIV-1 YU2 column, but determined in laboratory-adapted HIV-1IIIB strain; ref Zhao et al. [18]; cited from earlier work
[7] = system: virus expressing the S375W Env gp120; set-up: method as in PMID 19000821; details: virus expressing S375W Env gp120 incubated with target cells; ref [21]; cited from earlier work
[8] = HIV-1YU2, normalized to 1 (NBD-556), ref Madani et al. [21]
[9] = HIV-1YU2, normalized to 2 (NBD-557), ref [24,27]
[10] = HIV-1YU2, normalized to N-(4-Chloro-3-Fluorophenyl)-N'-(1,2,2,6,6-Pentamethylpiperidin-4-yl)ethanediamide, ref [24,27]

SMILES | enhancement of gp120 coremin binding to 17b (gp120 coremin) | IC50 (HIV-1 YU2 virus; ref [24,27]) | IC50 ([4]; ref [24,27]) | Activation of Viral Infectivity (HIV-1YU2 virus; [9]) | Kd (gp120; ref [24,27]) | further results
CC1(C)CC(NC(=O)C(=O)Nc2ccc(Cl)cc2)CC(C)(C)N1 [NBD-556] |  |  |  |  |  | binding of gp120 coree to immobilized ligand [1]: does not show detectable binding; binding of gp120 coree to immobilized ligand [2]: does not bind; binding of gp120 coree to immobilized ligand [3]: does not bind; IC50 (HIV-1 YU2 virus; ref Madani et al. [21]): > 100 µM; IC50 ([4]; ref Madani et al. [21]): > 100 µM; Activation of Viral Infectivity (HIV-1YU2 virus; [8]): 1.0 ± 0.1; binding to S375W full-length gp120 [5]: inefficiently bind
O=C(NCC1NCCc2ccccc21)C(=O)Nc1ccc(Cl)c(F)c1 (centres unmarked) [AS-II-37] | somewhat reduced enhancement | 50.4 µM | > 100 µM | 0.6 | 1.2 µM | 
N=C(N)N[C@@H]1Cc2ccccc2[C@H]1NC(=O)C(=O)Nc1ccc(Cl)c(F)c1 [AWS-I-169] |  | 21.3 µM | > 100 µM |  | 0.3 µM | Activation of Viral Infectivity (HIV-1YU2 virus; [10]): 0.0
CC1(C)O[C@@H](CN)[C@H](CNC(=O)C(=O)Nc2ccc(Cl)c(F)c2)O1 (relative stereo) [AS-I-261] | equally enhanced | 76.6 µM | 94.4 µM | 1.5 | 2.6 µM | activation of viral infectivity in CD4-negative cells (in words) (HIV-1YU2 virus; ref [24,27]): activated viral infectivity
O=C(NC[C@@]12CCC[C@@H]1CNC2)C(=O)Nc1ccc(Cl)c(F)c1 (relative stereo) [MAE-II-167] | equally enhanced | 68.3 µM | 93.1 µM | 0.0 | 3.1 µM | 
CC1(C)CC(NC(=O)C(=O)Nc2ccc(Cl)c(F)c2)CC(C)(C)N1 [JRC-II-191] |  |  |  |  |  | IC50 (HIV-1 YU2 virus; ref Madani et al. [21]): 54.4 µM; inhibition of HIV-1YU2 infection of cells expressing CD4 and CCR5 (HIV-1 YU2 virus; compared with NBD-556, ref [21], [27]): more potently than NBD-556; IC50 ([4]; ref Madani et al. [21]): > 100 µM; Activation of Viral Infectivity (HIV-1YU2 virus; [8]): 1.9 ± 0.2; enhancement of binding affinity for YU2 gp120 (gp120; para-chloro, meta-fluoro aromatic ring, compared with NBD-556, ref [21], [27]): 5 fold
N=C(N)NC[C@H]1Cc2ccccc2[C@@H]1NC(=O)C(=O)Nc1ccc(Cl)c(F)c1 [DMJ-II-121] |  | 2.3 µM | > 100 µM |  | 0.11 µM | Activation of Viral Infectivity (HIV-1YU2 virus; HIV-1YU2, normalized to 1 (NBD-556), ref [24,27]): 0.0
N=C(N)N[C@H]1Cc2ccccc2[C@@H]1NC(=O)C(=O)Nc1ccc(Cl)c(F)c1 [DMJ-I-228] |  | 22.9 µM | > 100 µM |  | 0.25 µM | Activation of Viral Infectivity (HIV-1YU2 virus; [10]): 0.0; activation of viral infectivity in CD4-negative cells (in words) (HIV-1YU2 virus; ref [24,27]): did not; effect on cell growth dynamics (cytotoxicity) (Cf2Th-CD4-CCR5 cells): does not alter the cell growth dynamics
O=C(NCC1CCN(C2CC2)C1)C(=O)Nc1ccc(Cl)c(F)c1 (centres unmarked) [MAE-II-188] | equally enhanced |  | > 100 µM | 0.3 |  | 
COc1ccnc2[nH]cc(C(=O)C(=O)N3CCN(C(=O)c4ccccc4)C[C@H]3C)c12 [BMS-806, reference compound] | did not enhance |  |  |  |  | 
CC1(C)CC(NC(=O)C(=O)Nc2ccc(Br)cc2)CC(C)(C)N1 [NBD-557, reference compound] |  |  |  |  |  | IC50 [6]: 3.08 µM; Activation of Viral Infectivity (HIV-1YU2 virus; [8]): 0.9 ± 0.4; Kd (gp120; ref Madani et al. [21]): 2.2 µM; enhancement of CD4-independent viral entry [7]: does not enhance
